# Test results taken from US8633315B2, “Substituted hydroxyethyl amine compounds as beta-secretase modulators and methods of use” (Amgen Inc., priority 2007, dated 2014).
# Tests used:
# BACE1 = BACE1 (Homo sapiens, UniProt P56817); assay: In vitro enzymatic BACE FRET (fluorescence resonance energy transfer) assay; type: biochemical
# In short: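 Fluorescence (ex 488 nm, […]) was read after Tris addition raised pH to neutral, ending a one-hour incubation. Reaction started with 50 nM fluorophore/quencher peptide substrate in pH 4.2 acetate (0.05 M) containing 100 uM genapol and 10% DMSO final.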
# [1] = test system: Cells stably expressing Amyloid Precursor Protein (APP); assay: In vitro BACE cell-based assay (HEK cell assay): Aβ40 in conditioned medium by sandwich ELISA; details: Aβ40 in conditioned medium after 24 h incubation
# In short: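 Secreted Aβ40 was quantified by time-resolved fluorescence sandwich ELISA, capturing with pAb40 for 3 h at 4 °C and detecting with biotinylated 6E10 for 2 h at 4 °C. Media came from APP-expressing cells exposed 24 h to compounds (10-point series from 100 or 10 μM, 0.1% DMSO); IC50 derived from percent of control.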
# Chain of BACE1 (P56817 46-501, species assumed): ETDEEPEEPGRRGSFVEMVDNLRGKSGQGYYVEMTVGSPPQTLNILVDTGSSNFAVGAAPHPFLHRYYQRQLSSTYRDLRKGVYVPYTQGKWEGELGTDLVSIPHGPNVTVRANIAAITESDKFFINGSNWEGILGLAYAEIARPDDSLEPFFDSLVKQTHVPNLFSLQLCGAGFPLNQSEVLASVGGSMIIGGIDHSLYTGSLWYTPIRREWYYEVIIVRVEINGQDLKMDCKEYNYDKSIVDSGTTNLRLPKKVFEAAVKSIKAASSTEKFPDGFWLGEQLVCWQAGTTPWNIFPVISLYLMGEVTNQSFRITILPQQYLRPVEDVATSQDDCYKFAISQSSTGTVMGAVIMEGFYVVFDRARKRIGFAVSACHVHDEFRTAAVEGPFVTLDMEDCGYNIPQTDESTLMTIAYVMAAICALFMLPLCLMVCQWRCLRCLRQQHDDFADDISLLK
Structure (SMILES),IC50 (BACE1),IC50 [1],"IC50 ([1]; Homo sapiens, HEK293, 24 h)"
"C=CC[C@H](NC(=O)[C@@H](OC)C(C)C)[C@H](O)CN[C@H]1CC2(CCC2)Oc2ncc(CC(C)(C)C)cc21 [Example 149, (2S)-N-((1S)-1-((1R)-2-(((4′S)-6′-(2,2-dimethylpropyl)-3′,4′-dihydrospiro[cyclobutane-1,2′-pyrano[2,3-b]pyridin]-4′-yl)amino)-1-hydroxyethyl)-3-buten-1-yl)-3-methyl-2-(methyloxy)butanamide]",934 nM,,1870 nM
"C=CC[C@H](NC(=O)c1cc(F)c(F)cc1F)[C@H](O)CN[C@H]1CC2(CCC2)Oc2ncc(CC(C)(C)C)cc21 [Example 77, N-((1S)-1-((1R)-2-(((4′S)-6′-(2,2-dimethylpropyl)-3′,4′-dihydrospiro[cyclobutane-1,2′-pyrano[2,3-b]pyridin]-4′-yl)amino)-1-hydroxyethyl)-3-buten-1-yl)-2,4,5-trifluorobenzamide]",440 nM,,3310 nM
"C=CC[C@H](NC(C)=O)[C@H](O)CN[C@H]1C[C@@]2(CC[C@H]2O)Oc2ncc(CC(C)(C)C)cc21 [Example 50, N-((1S)-1-((1R)-2-(((1R,2R,4′S)-6′-(2,2-dimethylpropyl)-2-hydroxy-3′,4′-dihydrospiro[cyclobutane-1,2′-pyrano[2,3-b]pyridin]-4′-yl)amino)-1-hydroxyethyl)-3-buten-1-yl)acetamide]",4160 nM,,≥ 10000 nM
"C=CC[C@H](NC(=O)c1ccc(F)c(F)c1F)[C@H](O)CN[C@H]1CC2(CCC2)Oc2ncc(CC(C)(C)C)cc21 [Example 73, N-((1S)-1-((1R)-2-(((4′S)-6′-(2,2-dimethylpropyl)-3′,4′-dihydrospiro[cyclobutane-1,2′-pyrano[2,3-b]pyridin]-4′-yl)amino)-1-hydroxyethyl)-3-buten-1-yl)-2,3,4-trifluorobenzamide]",483 nM,,2650 nM
"C=CCC(NC(=O)C1CCC(=O)O1)C(O)CNC1CC2(CCC2)Oc2cnc(C(F)(F)F)cc21 [Example 119, (S)-N-((2R,3S)-1-((S)-2,2-spirocyclobutyl-6-(trifluoromethyl)-3,4-dihydro-2H-pyrano[2,3-c]pyridin-4-ylamino)-2-hydroxyhex-5-en-3-yl)-5-oxo-tetrahydrofuran-2-carboxamide]",9300 nM,,≥ 10000 nM
"C=CC[C@H](NC(=O)c1ccccc1F)[C@H](O)CN[C@H]1CC2(CCC2)Oc2ncc(CC(C)(C)C)cc21 [Example 99, N-((1S)-1-((1R)-2-(((4′S)-6′-(2,2-dimethylpropyl)-3′,4′-dihydrospiro[cyclobutane-1,2′-pyrano[2,3-b]pyridin]-4′-yl)amino)-1-hydroxyethyl)-3-buten-1-yl)-2-fluorobenzamide]",339 nM,,1460 nM
"C=CC[C@H](NC(=O)C1(OC)CC1)[C@H](O)CN[C@H]1CC2(CCC2)Oc2ncc(CC(C)(C)C)cc21 [Example 151, N-((1S)-1-((1R)-2-(((4′S)-6′-(2,2-dimethylpropyl)-3′,4′-dihydrospiro[cyclobutane-1,2′-pyrano[2,3-b]pyridin]-4′-yl)amino)-1-hydroxyethyl)-3-buten-1-yl)-1-(methyloxy)cyclopropanecarboxamide]",454 nM,,878 nM
"C=CC[C@H](NC(=O)c1c(F)ccc(F)c1F)[C@H](O)CN[C@H]1CC2(CCC2)Oc2ncc(CC(C)(C)C)cc21 [Example 75, N-((1S)-1-((1R)-2-(((4′S)-6′-(2,2-dimethylpropyl)-3′,4′-dihydrospiro[cyclobutane-1,2′-pyrano[2,3-b]pyridin]-4′-yl)amino)-1-hydroxyethyl)-3-buten-1-yl)-2,3,6-trifluorobenzamide]",253 nM,,366 nM

# Now those with a lower IC50 (BACE1), led by results:
IC50 (BACE1),IC50 [1],"IC50 ([1]; Homo sapiens, HEK293, 24 h)",Structure (SMILES)
225 nM,,226 nM,"C=CC[C@H](NC(=O)COC)[C@H](O)CN[C@H]1CC2(CCC2)Oc2ncc(CC(C)(F)F)cc21 [Example 121, N-((1S)-1-((1R)-2-(((4′S)-6′-(2,2-difluoropropyl)-3′,4′-dihydrospiro[cyclobutane-1,2′-pyrano[2,3-b]pyridin]-4′-yl)amino)-1-hydroxyethyl)-3-buten-1-yl)-2-(methyloxy)acetamide]"
199 nM,,517 nM,"C=CC[C@H](NC(=O)c1cccnc1F)[C@H](O)CN[C@H]1CC2(CCC2)Oc2ncc(CC(C)(C)C)cc21 [Example 67, N-((1S)-1-((1R)-2-(((4′S)-6′-(2,2-dimethylpropyl)-3′,4′-dihydrospiro[cyclobutane-1,2′-pyrano[2,3-b]pyridin]-4′-yl)amino)-1-hydroxyethyl)-3-buten-1-yl)-2-fluoro-3-pyridinecarboxamide]"
179 nM,,71 nM,"C=CC[C@H](NC(=O)c1ccc(F)nc1)[C@H](O)CN[C@H]1CC2(CCC2)Oc2ncc(CC(C)(C)C)cc21 [Example 66, N-((1S)-1-((1R)-2-(((4′S)-6′-(2,2-dimethylpropyl)-3′,4′-dihydrospiro[cyclobutane-1,2′-pyrano[2,3-b]pyridin]-4′-yl)amino)-1-hydroxyethyl)-3-buten-1-yl)-6-fluoro-3-pyridinecarboxamide]"
125 nM,,392 nM,"C=CC[C@H](NC(=O)c1cncc(F)c1)[C@H](O)CN[C@H]1CC2(CCC2)Oc2ncc(CC(C)(C)C)cc21 [Example 56, N-((1S)-1-((1R)-2-(((4′S)-6′-(2,2-dimethylpropyl)-3′,4′-dihydrospiro[cyclobutane-1,2′-pyrano[2,3-b]pyridin]-4′-yl)amino)-1-hydroxyethyl)-3-buten-1-yl)-5-fluoro-3-pyridinecarboxamide]"
125 nM,,349 nM,"C=CC[C@H](NC(=O)c1ccccc1)[C@H](O)CN[C@H]1CC2(CCC2)Oc2ncc(CC(C)(C)C)cc21 [Example 59, N-((1S)-1-((1R)-2-(((4′S)-6′-(2,2-dimethylpropyl)-3′,4′-dihydrospiro[cyclobutane-1,2′-pyrano[2,3-b]pyridin]-4′-yl)amino)-1-hydroxyethyl)-3-buten-1-yl)benzamide]"
104 nM,,129 nM,"C=CCC(NC(=O)C1CC1OCC)C(O)CNC1CC2(CCC2)Oc2ncc(CC(C)(C)C)cc21 [Example 153, (1R,2R)-N-((1S)-1-((1R)-2-(((4′S)-6′-(2,2-dimethylpropyl)-3′,4′-dihydrospiro[cyclobutane-1,2′-pyrano[2,3-b]pyridin]-4′-yl)amino)-1-hydroxyethyl)-3-buten-1-yl)-2-(ethyloxy)cyclopropanecarboxamide; (1S,2S)-N-((1S)-1-((1R)-2-(((4′S)-6′-(2,2-dimethylpropyl)-3′,4′-dihydrospiro[cyclobutane-1,2′-pyrano[2,3-b]pyridin]-4′-yl)amino)-1-hydroxyethyl)-3-buten-1-yl)-2-(ethyloxy)cyclopropanecarboxamide]"
99 nM,,269 nM,"C=CC[C@H](NC(=O)[C@@H](C)OC)[C@H](O)CN[C@H]1CC2(CCC2)Oc2ncc(CC(C)C)cc21 [Example 42, (2R)-N-((1S)-1-((1R)-1-hydroxy-2-(((4′S)-6′-(2-methylpropyl)-3′,4′-dihydrospiro[cyclobutane-1,2′-pyrano[2,3-b]pyridin]-4′-yl)amino)ethyl)-3-buten-1-yl)-2-(methyloxy)propanamide]"
87 nM,,361 nM,"C=CC[C@H](NC(=O)c1ccc(F)c(F)c1)[C@H](O)CN[C@H]1CC2(CCC2)Oc2ncc(CC(C)(C)C)cc21 [Example 60, N-((1S)-1-((1R)-2-(((4′S)-6′-(2,2-dimethylpropyl)-3′,4′-dihydrospiro[cyclobutane-1,2′-pyrano[2,3-b]pyridin]-4′-yl)amino)-1-hydroxyethyl)-3-buten-1-yl)-3,4-difluorobenzamide]"
70 nM,121 nM,,"C=CC[C@H](NC(=O)[C@@H](C)F)[C@H](O)CN[C@H]1CC2(CCC2)Oc2ncc(CC(C)(C)C)cc21.C=CC[C@H](NC(=O)[C@H](C)F)[C@H](O)CN[C@H]1CC2(CCC2)Oc2ncc(CC(C)(C)C)cc21 [Example 148, (2R)-N-((1S)-1-((1R)-2-(((4′S)-6′-(2,2-dimethylpropyl)-3′,4′-dihydrospiro[cyclobutane-1,2′-pyrano[2,3-b]pyridin]-4′-yl)amino)-1-hydroxyethyl)-3-buten-1-yl)-2-fluoropropanamide; (2S)-N-((1S)-1-((1R)-2-(((4′S)-6′-(2,2-dimethylpropyl)-3′,4′-dihydrospiro[cyclobutane-1,2′-pyrano[2,3-b]pyridin]-4′-yl)amino)-1-hydroxyethyl)-3-buten-1-yl)-2-fluoropropanamide]"
40 nM,293 nM,,"CC=CC[C@H](NC(=O)COC)[C@H](O)CN[C@H]1CC2(CC(F)C2)Oc2ncc(CC(C)(C)C)cc21 (stereo partly drawn) [Example 110, N-((1S)-1-((1R)-2-(((1s,3S,4′S)-6′-(2,2-dimethylpropyl)-3-fluoro-3′,4′-dihydrospiro[cyclobutane-1,2′-pyrano[2,3-b]pyridin]-4′-yl)amino)-1-hydroxyethyl)-3-penten-1-yl)-2-(methyloxy)acetamide]"
15 nM,15 nM,,"C=CCC(NC(C)=O)C(O)CNC1CC2(CC(O)C2)Oc2ccc(CC(C)(C)C)cc21 [Example 116, N-((1S)-1-((1R)-2-(((2r,3′R,4S)-6-(2,2-dimethylpropyl)-3′-hydroxy-3,4-dihydrospiro[chromene-2,1′-cyclobutan]-4-yl)amino)-1-hydroxyethyl)-3-buten-1-yl)acetamide]"
6 nM,,6 nM,"C=CC[C@H](NC(=O)C1CC(=O)N(C2CCC2)C1)[C@H](O)CN[C@H]1CC2(CCC2)Oc2ncc(CC(C)C)cc21 (stereo partly drawn) [Example 40, 1-cyclobutyl-N-((1S)-1-((1R)-1-hydroxy-2-(((4′S)-6′-(2-methylpropyl)-3′,4′-dihydrospiro[cyclobutane-1,2′-pyrano[2,3-b]pyridin]-4′-yl)amino)ethyl)-3-buten-1-yl)-5-oxo-3-pyrrolidinecarboxamide]"
